Assay results taken from ChEMBL document CHEMBL1201862, “PubChem BioAssay data set” (2004).
The source made the active and inactive calls.

How the values were obtained:
Troponin, cardiac muscle = Troponin, cardiac muscle (Homo sapiens, UniProt P19429+P45379+P63316); experiment: Fluorescence-based biochemical high throughput dose response assay for activators of the calcium sensitivity of cardiac Regulated Thin Filaments (RTF). [Related pubchem assays (depositor defined):AID493008, AID493018, AID504382, AID504383]; type: protein-complex assay
[1] = (§1) Late stage assay provider results from the probe development effort to identify inhibitors of GSTO1: luminescence-based biochemical dose response assay to determine cytotoxicity of inhibitor compounds. [Related pubchem assays (depositor defined):AID1515, AID1974, AID2175, AID2176, AID463081, AID463098, AID463101, AID463102, AID463110, AID463142] Panel member name: Assay 2: % Surviving cells, media plus FCS; type: toxicity, cell-based
[2] = non-specific cell cytotoxicity, dose response, cytotoxicity control for PAX8 inhibitor project, plate reader, dry powder samples (AID 743021); type: functional, cell-based
[3] = target: T1, Replicative DNA helicase DnaB (Mycobacterium tuberculosis, UniProt P9WMR3); experiment: DnaB intein splicing inhibitors, dose response, biochemical, cell-free fluorescence (AID 449749); type: functional
T1 sequence (P9WMR3 whole entry): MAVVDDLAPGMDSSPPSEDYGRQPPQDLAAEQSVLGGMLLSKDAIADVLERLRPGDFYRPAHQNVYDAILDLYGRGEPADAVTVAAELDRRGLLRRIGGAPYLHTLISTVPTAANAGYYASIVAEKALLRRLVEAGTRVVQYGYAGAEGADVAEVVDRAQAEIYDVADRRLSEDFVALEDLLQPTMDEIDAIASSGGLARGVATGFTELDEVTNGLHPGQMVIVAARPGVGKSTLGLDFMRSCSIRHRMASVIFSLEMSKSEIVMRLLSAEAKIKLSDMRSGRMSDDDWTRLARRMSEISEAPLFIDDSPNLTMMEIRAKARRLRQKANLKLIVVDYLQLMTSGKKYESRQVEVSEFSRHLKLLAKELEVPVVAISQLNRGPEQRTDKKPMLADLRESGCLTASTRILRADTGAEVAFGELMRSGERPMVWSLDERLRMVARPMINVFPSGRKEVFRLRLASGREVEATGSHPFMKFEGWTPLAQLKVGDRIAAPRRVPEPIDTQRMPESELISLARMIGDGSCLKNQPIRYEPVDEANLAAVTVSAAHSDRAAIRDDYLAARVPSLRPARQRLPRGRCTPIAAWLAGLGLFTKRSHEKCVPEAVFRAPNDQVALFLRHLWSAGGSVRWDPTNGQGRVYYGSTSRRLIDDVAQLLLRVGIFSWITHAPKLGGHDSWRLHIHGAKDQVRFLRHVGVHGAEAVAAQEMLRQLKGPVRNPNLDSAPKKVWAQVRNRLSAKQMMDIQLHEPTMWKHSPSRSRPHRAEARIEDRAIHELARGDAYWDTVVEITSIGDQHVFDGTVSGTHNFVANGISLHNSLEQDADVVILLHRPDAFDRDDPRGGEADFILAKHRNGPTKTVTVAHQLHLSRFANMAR

Protein RecA = target: T2, Protein RecA (Mycobacterium tuberculosis, UniProt P9WHJ3); experiment: Fluorescence Cell-Free Homogeneous Dose Retest to Identify Inhibitors of RecA-Intein Splicing Activity. [Related pubchem assays (depositor defined):AID2097, AID2223, AID489010, AID492950]; type: functional
T2 sequence (P9WHJ3 whole entry): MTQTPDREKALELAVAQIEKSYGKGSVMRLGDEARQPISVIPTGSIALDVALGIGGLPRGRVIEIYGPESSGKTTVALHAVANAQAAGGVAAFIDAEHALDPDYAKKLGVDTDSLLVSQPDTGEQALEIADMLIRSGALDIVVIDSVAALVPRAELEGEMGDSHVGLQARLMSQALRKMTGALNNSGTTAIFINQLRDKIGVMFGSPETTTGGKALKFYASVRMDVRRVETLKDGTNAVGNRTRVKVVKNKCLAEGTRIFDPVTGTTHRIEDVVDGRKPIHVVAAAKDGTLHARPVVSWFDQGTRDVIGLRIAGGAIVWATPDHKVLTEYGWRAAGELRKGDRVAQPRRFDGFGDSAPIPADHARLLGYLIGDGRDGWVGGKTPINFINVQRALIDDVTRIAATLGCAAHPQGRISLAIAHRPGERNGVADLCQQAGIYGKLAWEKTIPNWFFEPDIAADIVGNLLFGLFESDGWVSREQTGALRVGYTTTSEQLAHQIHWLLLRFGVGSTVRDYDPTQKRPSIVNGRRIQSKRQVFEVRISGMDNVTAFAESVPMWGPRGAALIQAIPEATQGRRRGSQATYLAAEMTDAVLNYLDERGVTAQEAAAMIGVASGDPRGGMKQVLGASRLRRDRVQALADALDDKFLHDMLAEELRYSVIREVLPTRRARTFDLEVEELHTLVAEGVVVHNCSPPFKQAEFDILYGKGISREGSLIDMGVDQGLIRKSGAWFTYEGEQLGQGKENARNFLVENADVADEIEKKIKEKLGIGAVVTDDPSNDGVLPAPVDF

BJ [4] = experiment: cytotoxicity toward BJ-TERT-LT-ST fibroblasts, dose response, cell-based, RAS-independent, luminescence (AID 1935); type: functional; settings: Homo sapiens;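 note: BJ fibroblasts immortalized with TERT plus LT and ST oncogenes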
[5] = target: T3, Microphthalmia-associated transcription factor (Homo sapiens, UniProt O75030); experiment: TRPM1 promoter luciferase signal decrease, dose response, MITF inhibitor project, cell-based, SK-MEL-5, cherry-picked, set 3 (AID 493073); type: functional
T3 sequence (O75030 whole entry): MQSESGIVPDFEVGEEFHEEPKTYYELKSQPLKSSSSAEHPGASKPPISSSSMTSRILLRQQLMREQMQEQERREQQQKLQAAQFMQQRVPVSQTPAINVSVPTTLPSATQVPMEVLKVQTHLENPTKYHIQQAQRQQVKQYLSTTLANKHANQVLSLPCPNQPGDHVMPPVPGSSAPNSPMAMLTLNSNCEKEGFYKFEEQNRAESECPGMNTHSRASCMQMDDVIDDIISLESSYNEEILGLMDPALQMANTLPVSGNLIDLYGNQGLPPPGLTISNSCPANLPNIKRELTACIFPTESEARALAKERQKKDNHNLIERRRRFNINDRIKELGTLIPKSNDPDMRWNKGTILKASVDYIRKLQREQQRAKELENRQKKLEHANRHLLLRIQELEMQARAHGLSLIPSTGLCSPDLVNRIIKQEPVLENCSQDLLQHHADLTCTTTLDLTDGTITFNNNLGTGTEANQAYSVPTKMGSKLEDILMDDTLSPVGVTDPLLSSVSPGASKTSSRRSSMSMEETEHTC

[6] = cytotoxicity toward DRD oncogenic fibroblasts, dose response, cell-based, non-viral oncogenic, luminescence (AID 1934); type: functional; settings: Homo sapiens
BJ [7] = experiment: cells; type: functional, cell-based; settings: Homo sapiens
BJ [8] = experiment: cytotoxicity toward BJ-TERT fibroblasts, dose response, cell-based, RAS-independent, luminescence (AID 1933); type: functional; settings: Homo sapiens
Paired box protein Pax-8 = Paired box protein Pax-8 (Homo sapiens, UniProt Q06710); experiment: inhibitors of PAX8-driven TPO luciferase reporter, dose response, RMG-I cells, cherry-pick (AID 687027); type: functional, cell-based;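 note: luciferase reporter driven by Pax8 target thyroperoxidase promoter measured by SteadyGlo luminescence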
[9] = as §1, with “1:” for “2:”, “cells, serum-free” for “cells,”, “media” for “media plus FCS”; type: toxicity, cell-based
[10] = target: Glutathione S-transferase omega-1 (Homo sapiens, UniProt P78417); experiment: GSTO1 inhibitor potency, recombinant enzyme, late-stage follow-up, biochemical, SE-Rh probe, in-gel fluorescence, powder samples (AID 463081); type: functional
[11] = target: T4, Corticotropin-releasing factor receptor 2/Corticotropin-releasing factor-binding protein (Homo sapiens, UniProt P24387+Q13324); experiment: activators of CRF receptor 2 with binding protein – uHTS hits, confirmation (AID 602473); type: functional; settings: read-out: EC50_Mean
T4 sequence (Q13324 whole entry): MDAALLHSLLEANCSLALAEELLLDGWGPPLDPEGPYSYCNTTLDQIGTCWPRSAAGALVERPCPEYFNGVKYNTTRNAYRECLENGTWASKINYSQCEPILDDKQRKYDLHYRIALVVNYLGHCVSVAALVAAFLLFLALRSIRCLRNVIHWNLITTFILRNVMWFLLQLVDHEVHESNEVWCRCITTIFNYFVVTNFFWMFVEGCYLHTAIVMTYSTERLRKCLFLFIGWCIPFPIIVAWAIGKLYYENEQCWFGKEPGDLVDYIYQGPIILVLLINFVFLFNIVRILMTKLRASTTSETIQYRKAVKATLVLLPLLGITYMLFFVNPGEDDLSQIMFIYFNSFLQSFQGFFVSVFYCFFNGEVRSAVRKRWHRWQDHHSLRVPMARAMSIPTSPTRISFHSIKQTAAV
T4 sequence (P24387 whole entry): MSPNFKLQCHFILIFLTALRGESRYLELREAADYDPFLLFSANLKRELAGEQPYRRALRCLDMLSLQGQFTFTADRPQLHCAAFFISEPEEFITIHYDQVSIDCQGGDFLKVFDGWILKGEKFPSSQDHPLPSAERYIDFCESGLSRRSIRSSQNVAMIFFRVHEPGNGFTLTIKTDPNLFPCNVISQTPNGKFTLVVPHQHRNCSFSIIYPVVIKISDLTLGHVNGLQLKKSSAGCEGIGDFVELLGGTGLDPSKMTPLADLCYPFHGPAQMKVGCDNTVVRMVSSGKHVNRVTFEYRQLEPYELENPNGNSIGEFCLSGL

Coagulation factor XII [12] = target: T5, Coagulation factor XII (Homo sapiens, UniProt P00748); experiment: Factor XIIa Dose Response Confirmation from Single Well HTS. [Related pubchem assays (depositor defined):AID701]; type: functional
T5 sequence (P00748 whole entry): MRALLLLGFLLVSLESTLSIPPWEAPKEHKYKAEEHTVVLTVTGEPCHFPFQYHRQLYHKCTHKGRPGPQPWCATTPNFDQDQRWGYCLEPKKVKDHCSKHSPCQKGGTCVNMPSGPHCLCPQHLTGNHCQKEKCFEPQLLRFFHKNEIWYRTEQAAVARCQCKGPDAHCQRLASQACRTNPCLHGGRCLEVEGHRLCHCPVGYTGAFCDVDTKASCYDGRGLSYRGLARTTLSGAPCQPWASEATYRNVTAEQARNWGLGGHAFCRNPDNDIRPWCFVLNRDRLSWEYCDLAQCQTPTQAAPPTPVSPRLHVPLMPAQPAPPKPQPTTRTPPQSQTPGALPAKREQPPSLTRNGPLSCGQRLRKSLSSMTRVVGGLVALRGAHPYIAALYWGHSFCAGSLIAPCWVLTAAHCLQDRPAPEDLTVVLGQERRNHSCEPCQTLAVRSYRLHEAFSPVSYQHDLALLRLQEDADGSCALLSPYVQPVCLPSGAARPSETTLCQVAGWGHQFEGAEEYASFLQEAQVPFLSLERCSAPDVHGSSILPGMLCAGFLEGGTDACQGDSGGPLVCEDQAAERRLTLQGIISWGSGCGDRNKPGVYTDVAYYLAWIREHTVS

Coagulation factor XII [13] = target: T5, Coagulation factor XII; experiment: FXIIa inhibitor potency, concentration-response, biochemical (AID 716); type: functional
Mu-type opioid receptor = Mu-type opioid receptor (Homo sapiens, UniProt P35372); experiment: SAR Analysis of Antagonists of the MOR Receptor using an Image-Based Assay - Set 3. [Related pubchem assays (depositor defined):AID1777, AID1785, AID1786, AID1966, AID2133, AID2136, AID2284, AID2285, AID2420]; type: functional
[14] = target: T6, Kappa-type opioid receptor (Homo sapiens, UniProt P41145); experiment: SAR analysis of small molecule antagonists of the kappa opioid receptor via a luminescent beta-arrestin assay - Set 3. [Related pubchem assays (depositor defined):AID1777, AID1778, AID1785, AID1786, AID1966, AID2133, AID2136, AID2285, AID2495]; type: functional
[15] = target: T6, Kappa-type opioid receptor; experiment: SAR analysis of Antagonists of the Kappa Opioid Receptor (KOR) using an Image-Based Assay - Set 3. [Related pubchem assays (depositor defined):AID1777, AID1785]; type: functional
[16] = target: Delta-type opioid receptor (Homo sapiens, UniProt P41143); experiment: SAR Analysis of Antagonists of the DOR Receptor using an Image-Based Assay - Set 3. [Related pubchem assays (depositor defined):AID1777, AID1785]; type: functional;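 note: U2OS cells expressing DOR1 and beta-arrestin GFP stimulated with 100 nM SNC80; imaging of GFP-tagged beta-arrestin moving into spots after receptor activation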

## O=C(COc1ccccc1F)NC1CC1
Troponin, cardiac muscle
  EC50: > 71.5 µM (inactive)

## COc1ccc(N(C(=O)CCl)C(C(=O)NC2CCCCC2)c2cccnc2)cc1 (stereo not given)
[1]
  CC50: > 35 µM (inactive)
[2]
  AC50: 3.18 µM (active)
[3]
  AC50: 7.67 µM (active)
Protein RecA
  EC50: 0.619 µM (active)
BJ [4]
  EC50: 7.37 µM (inconclusive)
[5]
  AC50: 5.87 µM (active)
[6]
  EC50: 2.63 µM (inconclusive)
BJ [7]
  EC50: 4.5 µM (active)
BJ [8]
  EC50: 1.01 µM (active)
Paired box protein Pax-8
  AC50: 1.3 µM (active)
[9]
  CC50: > 45 µM (inactive)
[10]
  IC50: 0.067 µM (active)

## CCn1c(C)c(C(C)=O)c(N2CCN(c3ccccc3)CC2)nc1=S
[11]
  EC50: > 53 µM (inactive)
Coagulation factor XII [12]
  IC50: > 50 µM (inactive)

## NC(=O)Cn1cnc(-c2ccccc2)c1
Coagulation factor XII [13]
  IC50: > 50 µM (inactive)

## O=C(Cn1c(=O)c2cccn2c2cccnc21)NCCCN1CCOCC1
Mu-type opioid receptor
  IC50: > 32 µM (inactive)
[14]
  IC50: > 20 µM (inactive)
[15]
  IC50: > 32 µM (inactive)
[16]
  IC50: > 32 µM (inactive)
